Here are results for six compounds from PMC7923228, “Phosphoinositide 3-Kinase (PI3K) Reactive Oxygen Species (ROS)-Activated Prodrug in Combination with Anthracycline Impairs PI3K Signaling, Increases DNA Damage Response and Reduces Breast Cancer Cell Growth” (International Journal of Molecular Sciences, 2021).

“And” between values parts separate entries of the source, which are not always exact repeats. Identical values can stand only once. Like-named read-outs stand apart in the source and are kept apart here.

The test system of one series is NH fibroblasts. Nature of the series: cells. In kind it is cell-based.
The subject of another series is MCF10A cells. Nature of the series: cells. Conditions: for IC50: 72 h MTT. In kind it is cell-based.
For series [1], the system named is p-AKT, p-P53, p-CHK1, p-CHK2 in MDA-MB-231, MDA-MB-361 and MDA-MB-453 cells. In kind it is cell-based, Human. The settings on record: for phosphorylation of AKT at Thr308: data not shown; for phosphorylation of CHK2 at T68: most notably in MDA-MB-361 and MDA-MB-453 versus vehicle control, 24 h. The source says: Cells were lysed in RIPA buffer (Thermo Fisher Scientific, Waltham, MA, USA, Cat#BP-115) supplemented with protease and phosphatase inhibitors (Thermo Fisher Scientific, Cat#88669). […] Peroxidase-conjugated secondary antibodies (Santa Cruz Biotechnology) were used and protein signals were detected using Pierce ECL western blotting substrate (Thermo Fisher Scientific, Cat# 32106).

In series [2] the test system is MDA-MB-231, MDA-MB-361 and MDA-MB-453 cells. Nature of the series: MTT cell viability assay, combination treatments, 72 h. In kind it is cell-based, Human.
Description: (§1) Growth kinetics of fibroblasts, MCF10A, MDA-MB-231, MDA-MB-361 and MDA-MB-453 cells was determined by the 4,5-dimethylthiazol-2-yl)-2,5-diphenyltetrazolium bromide (MTT) assay. Briefly, 2 × 10^4 cells/well were seeded in 96 well plates in triplicate. […] MDA-MB-231 cells were treated with 500–5000 nM, MDA-MB-361 with 50–450 nM and MDA-MB-453 with 100–4000 nM of doxorubicin for 72 h. […] MDA-MB-231 cells were treated with 50–50,000 pM docetaxel. MDA-MB-361 cells were treated with 10–90 nM of docetaxel. MDA-MB-453 cells were subjected 50–10,000 pM of docetaxel. The cell proliferation was analyzed after 72 h and represented as mean of triplicate values relative to DMSO control.
Series [3] concerns MDA-MB-361 cells.
Description: as §1
Series [4] deals with MDA-MB-231 cells. Nature of the series: MTT cell viability assay, 72 h. For orientation: Tetrazolium dyes change colour on reduction, which living cells bring about.
Description: as §1
For series [5], the system named is MDA-MB-453 cells. Nature of the series: MTT cell viability assay, 72 h.
Description: as §1
The test system of series [6] is MDA-MB-361 cells. Nature of the series: cells. Conditions: Homo sapiens, MDA-MB-361, 72 h.
Description: as §1
In the next series the test system is PI3Kɣ. More on the design: method as in PMID 19584227. Conditions: read-out: IC50 against PI3Kɣ; cited from earlier work.
Series [7] relates to PIK3CA-mutated, hormone receptor (HR)-positive, HER2-negative advanced breast cancer. Set-up: method as in PMID 31091374. Conditions: cited from earlier work.
Series [8] deals with MCF10A, MDA-MB-231, MDA-MB-361 and MDA-MB-453 cells. Nature of the series: Intracellular ROS, DCFDA assay. In kind it is cell-based. The settings on record: 125 nM, 30 min. As for the experimental part: The cells were resuspended in dichlorodihydrofluorescein diacetate (DCFH-DA) for 30 min […] using the CellQuest software v4.0.1 (Becton Dickinson and Company, Franklin Lakes, NJ, USA) to measure the ROS levels. The DCFH-DA levels were measured using a SPECTRAmax PLUS Microplate Spectrophotometer Plate Reader (Molecular Devices Corporation).

In series [9] the test system is MDA-MB-231 cells.
Description: as §1
Series [10] has as its system MDA-MB-453 cells.
Description: as §1

Description for MCF10A cells: as §1

By IC50 is commonly meant the concentration needed to halve the response being measured. In the case of “ROS-induced drug release 3-(4-morpholinopyrido[3′,2′:4,5]furo[3,2-d]pyrimidin-2-yl)phenol [RIDR-PI-103]”, the “response to treatment (growth)” value with NH fibroblasts (normal fibroblasts, 50 µM or greater, 72 h) is listed as “did not respond appreciably”; in the series on MCF10A cells (50 µM or greater, 72 h) it was “did not respond appreciably”. Moreover, the IC50 was 78.6 µM in the series with MCF10A cells; 43000 nM in the series with MDA-MB-361 cells [3] (MDA-MB-361, 72 h MTT); 47.3 µM with MDA-MB-231 cells [4] (MDA-MB-231, 72 h MTT); 49.1 µM with MDA-MB-453 cells [5] (MDA-MB-453, 72 h MTT). Also, the “phosphorylation of AKT at Thr308” value in series [1] is given as “no effect”. In addition, in series [1], the “phosphorylation of CHK2 at T68” value is “increased phosphorylation”. For the same compound, in series [2] (10, 15 and 30 µM RIDR-PI-103, MDA-MB-231, MDA-MB-361 and MDA-MB-453), the “effect on cytotoxicity of doxorubicin” value is listed as “enhances the cytotoxicity”. Moreover, in series [2] (three breast cancer cell lines, 50 µM or greater, 72 h), the growth inhibition entry is listed as “showed growth inhibition”.

On to `Oc1cccc(-c2nc(N3CCOCC3)c3oc4ncccc4c3n2)c1` [PI-103, 3-(4-morpholinopyrido[3′,2′:4,5]furo[3,2-d]pyrimidin-2-yl)phenol], for which the IC50 with NH fibroblasts (Fibroblast, fibroblasts, 72 h MTT) is 3.9 µM; in the series with MCF10A cells (Homo sapiens, MCF-10A) it was 3.8 µM; with MDA-MB-361 cells [6] it was 1700 nM; in the series with PI3Kɣ it was 15 nM; in the series with MDA-MB-453 cells [5] (Homo sapiens, MDA-MB-453, 72 h), 0.82 µM.

Turning to `CC(=O)O[C@@]12CO[C@@H]1C[C@H](O)[C@@]1(C)C(=O)[C@H](O)C3=C(C)[C@@H](OC(=O)[C@H](O)[C@@H](NC(=O)OC(C)(C)C)c4ccccc4)C[C@@](O)([C@@H](OC(=O)c4ccccc4)[C@H]21)C3(C)C` [docetaxel], in series [2] (docetaxel + 10, 15 or 30 µM RIDR-PI-103, 72 h), the “suppression of breast cancer cell growth in combination with RIDR-PI-103” value is listed as “less effective”.

Regarding `Cc1nc(NC(=O)N2CCC[C@H]2C(N)=O)sc1-c1ccnc(C(C)(C)C(F)(F)F)c1` [alpelisib, Alpelisib], the “improvement of progression-free survival compared with fulvestrant alone” value in [7] (alpelisib in combination with fulvestrant, patients who had received endocrine therapy previously) is recorded as “about 5 months”. Moreover, in [7] (patients receiving alpelisib), the adverse events result is on record as “high risk of hyperglycemia-related adverse events”.

For `CC(=O)N[C@@H](CS)C(=O)O` [NAC, N-Acetyl Cysteine], in the series on MDA-MB-231 cells [4] (MDA-MB-231, 10 mM NAC, 125 nM doxorubicin ± 30 µM RIDR-PI-103, 24 hour), the “rescue of antiproliferative effects of RIDR-PI-103 and doxorubicin” value is given as “rescued the antiproliferative effects”.

Regarding `COc1cccc2c1C(=O)c1c(O)c3c(c(O)c1C2=O)C[C@@](O)(C(=O)CO)C[C@@H]3O[C@H]1C[C@H](N)[C@H](O)[C@H](C)O1` [Doxorubicin], the ROS levels entry in series [8] was “induced ROS”. In addition, the “p53 phosphorylation at Ser15” value in [1] is reported as “didn’t observe p53 post-translational modification activation”. Further, the “phosphorylation of AKT at Thr308” value in series [1] is “no effect”. The “phosphorylation of CHK2 at T68” value in series [1] is reported as “increased phosphorylation”. Besides, the IC50 with MDA-MB-231 cells [9] is 185 nM and 146 nM; in the series on MDA-MB-361 cells [3], 111 nM and 110 nM and 73.2 nM; with MDA-MB-453 cells [10], 530 nM and 516 nM and 478 nM; in the series on MDA-MB-361 cells [6] (read-out: IC50 (MDA-MB-361)) it was 116 nM; in the series with MDA-MB-231 cells [4] (Homo sapiens, MDA-MB-231, 72 h, read-out: IC50 (MDA-MB-231)) it was 0.405 µM; in the series on MDA-MB-453 cells [5] (Homo sapiens, MDA-MB-453, 72 h, read-out: IC50 (MDA-MB-453)), 0.579 µM.
